The source of these data is US7186732B2, “Non-imidazole aryloxyalkylamines” (Ortho-McNeil Pharmaceutical, Inc., priority 2000, dated 2007).

Counter-ions that a name gives are not always drawn.

In one assay the target is T1, human histamine H3 receptor (Homo sapiens, UniProt Q9Y5N1).
T1 construct: expressed in transfected cells; membranes prepared from cell pellets
T1 sequence (Q9Y5N1 whole entry): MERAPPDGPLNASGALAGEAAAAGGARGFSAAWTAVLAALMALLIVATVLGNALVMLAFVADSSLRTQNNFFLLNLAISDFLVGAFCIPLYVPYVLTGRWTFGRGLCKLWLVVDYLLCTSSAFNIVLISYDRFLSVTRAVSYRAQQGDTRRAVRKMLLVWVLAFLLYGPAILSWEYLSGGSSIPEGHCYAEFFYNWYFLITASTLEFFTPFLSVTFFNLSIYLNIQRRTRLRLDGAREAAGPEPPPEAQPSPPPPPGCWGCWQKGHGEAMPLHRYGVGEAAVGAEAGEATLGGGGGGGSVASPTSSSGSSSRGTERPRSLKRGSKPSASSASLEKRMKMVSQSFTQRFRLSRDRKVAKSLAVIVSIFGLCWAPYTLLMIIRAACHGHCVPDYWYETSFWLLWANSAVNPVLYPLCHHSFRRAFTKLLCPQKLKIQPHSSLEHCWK
The assay is described as follows: [3H]-N-methylhistamine binding to membranes of histamine H3 receptor-expressing SK-N-MC cells.
Conditions: not given
On the procedure: Thus in the present invention receptor binding was determined using the human histamine H3 receptor (See Lovenberg et al Mol. Pharmacol. 1999, 1107). Screening using the human receptor is particularly important for the identification of new therapies for the treatment of human disease. Conventional binding assays for example are determined using rat synaptosomes (Garbarg et al J. Pharmacol. Exp. Ther. 1992, 263, 304), rat cortical membranes (West et al Mol. Pharmacol. 1990, 610), and guinea pig brain (Korte et al Biochem. Biophys. Res. Commun. 1990, 978).
Transfection of Cells with Human Histamine Receptor
A 10 cm tissue culture dish with a confluent monolayer of SK-N-MC cells was split two days prior to transfection. Using sterile technique the media was removed and the cells were detached from the dish by the addition of trypsin. One fifth of the cells were then placed onto a new 10 cm dish. Cells were grown in a 37° C. incubator with 5% CO2 in Minimal Essential Media Eagle with 10% Fetal Bovine Serum. After two days cells were approximately 80% confluent. These were removed from the dish with trypsin and pelleted in a clinical centrifuge. The pellet was then re-suspended in 400 μL complete media and transferred to an electroporation cuvette with a 0.4 cm gap between the electrodes (Bio-Rad #165–2088). One microgram of supercoiled H3 receptor cDNA was added to the cells and mixed. The voltage for the electroporation was set at 0.25 kV, the capacitance was set at 960 μF. After electroporation the cells were diluted into 10 mL complete media and plated onto four 10 cm dishes. Because of the variability in the efficiency of electroporation, four different concentrations of cells were plated. The ratios used were; 1:20, 1:10, 1:5, with the remainder of the cells being added to the fourth dish. The cells were allowed to recover for 24 hours before adding the selection media (complete media with 600 μg/mL G418). After 10 days dishes were analyzed for surviving colonies of cells. Dishes with well isolated colonies were used. Cells from individual colonies were isolated and tested. SK-N-MC cells were used because they give efficient coupling for inhibition of adenylate cyclase. The clones that gave the most robust inhibition of adenylate cyclase in response to histamine were used for further study.
[^3H]-N-methylhistamine Binding
Cell pellets from histamine H3 receptor-expressing SK-N-MC cells were homogenized in 20 mM TrisHCI/0.5 mM EDTA. Supernatants from a 800 g spin were collected, recentrifuged at 30,000 g for 30 minutes. Pellets were re-homogenized in 50 mM Tris/5 mM EDTA (pH 7.4). Membranes were incubated with 0.8 nM [^3H]-N-methylhistamine plus/minus test compounds for 45 min at 25° C. and harvested by rapid filtration over GF/C glass fiber filters (pretreated with 0.3% polyethylenimine) followed by four washes with ice cold buffer. Filters were dried, added to 4 mL scintillation cocktail and then counted on a liquid scintillation counter. Non-specific binding was defined with 10 μM histamine. The pKi values were calculated based on a Kd of 800 pM and a ligand concentration ([L]) of 800 pM according to the formula: Ki=(IC50)/(1+([L]/(Kd))
For orientation: Ki means a measure of affinity in units of concentration, obtained from inhibition or displacement. Turning to `OC1CCN(Cc2ccc(OCCCN3CCCCC3)cc2)CC1` [Example 89, 1-[4-(3-Piperidin-1-yl-propoxy)-benzyl]-piperidin-4-ol], the inhibition constant (Ki) came to 0.6 nM.

Staying with this assay, now noted: 0.8 nM [3H]-N-methylhistamine, 45 min at 25° C., SK-N-MC cell membranes; Ki=(IC50)/(1+([L]/(Kd)); read-out: Ki.
With `c1cc(OCCCN2CCCCC2)ccc1CN1CCOCC1` [Example 94, 4-[4-(3-Piperidin-1-yl-propoxy)-benzyl]-morpholine], the inhibition constant Ki turned out to be 0.7 nM.
`c1ccc(NC2CCN(Cc3ccc(OCCCN4CCCCC4)cc3)CC2)nc1` [Example 41, {1-[4-(3-Piperidin-1-yl-propoxy)-benzyl]-piperidin-4-yl}-pyridin-2-yl-amine]: the Ki was found to be 0.8 nM.
Turning to `NC(=O)C1CCN(Cc2ccc(OCCCN3CCCCC3)cc2)CC1` [Example 57, 1-[4-(3-Piperidin-1-yl-propoxy)-benzyl]-piperidine-4-carboxylic acid amide], the inhibitory constant (Ki) is 1 nM.
Same read-out and setting: with `OCCC1CCCCN1CCCOc1ccc(CN2CCCCC2)cc1` (stereo not drawn) [Example 69, 2-{1-[3-(4-Piperidin-1-ylmethyl-phenoxy)-propyl]-piperidin-2-yl}-ethanol] the figure was 3.9 nM; with `CN1CCN(CCCOc2ccc(CN3CCCCC3)cc2)CC1` [Example 52, 1-Methyl-4-[3-(4-piperidin-1-ylmethyl-phenoxy)-propyl]-piperazine], 25 nM.
Take `C(=C1CCN(Cc2ccccc2OCCCN2CCCCC2)CC1)c1ccccc1` [Example 70, 1-{3-[2-(4-Benzylidene-piperidin-1-ylmethyl)-phenoxy]-propyl}-piperidine]: the Ki worked out at 380 nM.
For `c1ccc(CCCC2CCN(Cc3ccc(OCCCN4CCCCC4)cc3)CC2)cc1` [Example 58, 1-[4-(3-Piperidin-1-yl-propoxy)-benzyl]-4-(3-phenyl-propyl)-piperidine], the inhibitory constant (Ki) stood at 1.9 nM.
The same measure, in the same setting: with `c1cncc(C2CCCCN2Cc2ccc(OCCCN3CCCCC3)cc2)c1` (stereo not drawn) [Example 61, 1-[4-(3-Piperidin-1-yl-propoxy)-benzyl]-1,2,3,4,5,6-hexahydro-[2,3′]bipyridinyl] the figure was 2 nM; with `CCN(Cc1ccncc1)Cc1ccc(OCCCN2CCCCC2)cc1` [Example 79, Ethyl-[4-(3-piperidin-1-yl-propoxy)-benzyl]-pyridin-4-ylmethyl-amine], 1.3 nM; with `c1ccc(NCc2ccc(OCCCN3CCCCC3)cc2)nc1` [Example 84, [4-(3-Piperidin-1-yl-propoxy)-benzyl]-pyridin-2-yl-amine], 5 nM.
With `c1cc(-c2ncc(OCCCN3CCCCC3)cn2)ccc1OCCCN1CCCCC1` [Example 33, 5-(3-Piperidin-1-yl-propoxy)-2-[4-(3-piperidin-1-yl-propoxy)-phenyl]-pyrimidine], the inhibitory constant (Ki) amounted to 13 nM.
Regarding `c1cc(OCCN2CCCCC2)ccc1CN1CCCCC1` [Example 20, 1-[2-(4-Piperidin-1-ylmethyl-phenoxy)-ethyl]-piperidine], the Ki worked out at 5 nM.
The same measure, in the same setting: under `CN(Cc1ccccc1)Cc1ccc(OCCCN2CCCCC2)cc1` [Example 80, Benzyl-methyl-[4-(3-piperidin-1-yl-propoxy)-benzyl]-amine] stands 1 nM; under `c1cc(OCCCN2CCCCC2)ccc1CN1CCCC1` [Example 48, 1-[3-(4-Pyrrolidin-1-ylmethyl-phenoxy)-propyl]-piperidine], 1.2 nM; under `c1cc(OCCCN2CCCCC2)ccc1CNC1CCCCC1` [Example 49, Cyclohexyl-[4-(3-piperidin-1-yl-propoxy)-benzyl]-amine], 1 nM.
The same measure, in the same setting: with `c1ccc(-c2ccc(OCCCN3CCCCC3)cc2)c(CN2CCCCC2)c1` [Example 34, 1-[3-(2′-Piperidin-1-ylmethyl-biphenyl-4-yloxy)-propyl]-piperidine] the figure was 1.5 nM.
Take `c1ccc2c(c1)CCN(Cc1ccc(OCCN3CCCCC3)cc1)C2` [Example 21, 2-[4-(2-Piperidin-1-yl-ethoxy)-benzyl]-1,2,3,4-tetrahydro-isoquinoline]: the Ki is 4 nM.
As to `c1ccc(NCc2ccc(OCCCN3CCCCC3)cc2)cc1` [Example 62, Phenyl-[4-(3-piperidin-1-yl-propoxy)-benzyl]-amine], the Ki came out at 7 nM.
Consider `c1cc(OCCCN2CCCCC2)ccc1OCCCN1CCCCC1` [Example 31, 1-{3-[4-(3-Piperidin-1-yl-propoxy)-phenoxy]-propyl}-piperidine], for which the Ki amounted to 0.5 nM.
`Clc1ccc(NCc2cccc(OCCCN3CCCCC3)c2)cc1` [Example 68, (4-Chloro-phenyl)-[3-(3-piperidin-1-yl-propoxy)-benzyl]-amine]: the Ki was 89 nM.
Regarding `CN(CCc1ccccc1)C1CCN(Cc2ccc(OCCCN3CCCCC3)cc2)CC1` [Example 42, Methyl-phenethyl-{1-[4-(3-piperidin-1-yl-propoxy)-benzyl]-piperidin-4-yl}-amine], the Ki is 1.1 nM.
As to `c1ccc(NCc2cccc(OCCCN3CCCCC3)c2)nc1` [Example 66, [3-(3-Piperidin-1-yl-propoxy)-benzyl]-pyridin-2-yl-amine], the Ki was 8 nM.
Still for that read-out and setting: with `C(=C1CCN(Cc2ccc(OCCCN3CCCCC3)cc2)CC1)c1ccccc1` [Example 72, 1-{3-[4-(4-Benzylidene-piperidin-1-ylmethyl)-phenoxy]-propyl}-piperidine] the figure was 1.3 nM.
For `c1cc(-n2nnnc2SCCCN2CCCCC2)ccc1OCCCN1CCCCC1` [Example 32, 1-(3-{4-[5-(3-Piperidin-1-yl-propylsulfanyl)-tetrazol-1-yl]-phenoxy}-propyl)-piperidine], the Ki was 0.5 nM.
As for `CN(C)Cc1ccc(OCCCN2CCCCC2)cc1` [Example 59, Dimethyl-[4-(3-piperidin-1-yl-propoxy)-benzyl]-amine], the Ki was 2 nM.
For `c1cc(-c2ccc(OCCCN3CCCCC3)cc2)n(CCCN2CCCCC2)c1` [Example 96, 1-(3-{4-[1-(3-Piperidin-1-yl-propyl)-1H-pyrrol-2-yl]-phenoxy}-propyl)-piperidine], the Ki was found to be 1.5 nM.
Still for that read-out and setting: with `CN1CCCC1c1ccc(OCCCN2CCCCC2)cc1` (stereo not drawn) [Example 37, 1-{3-[4-(1-Methyl-pyrrolidin-2-yl)-phenoxy]-propyl}-piperidine] the figure was 0.4 nM; with `c1cc(N2CCNCC2)ccc1OCCCN1CCCCC1` [Example 25, 1-[4-(3-Piperidin-1-yl-propoxy)-phenyl]-piperazine hydrochloride], 1 nM.

Staying with this assay, now noted: 0.8 nM [3H]-N-methylhistamine, 45 min at 25° C., SK-N-MC cell membranes; […]; read-out: Ki.
On to `OC1(c2ccc(OCCCN3CCCCC3)cc2)CCN(Cc2ccccc2)CC1` [Example 22, 1-Benzyl-4-[4-(3-piperidin-1-yl-propoxy)-phenyl]-piperidin-4-ol], for which the Ki amounted to 0.9 nM.
Regarding `Brc1ccc2c(c1)CCN2C1CCN(Cc2ccc(OCCCN3CCCCC3)cc2)CC1` [Example 63, 5-Bromo-1-{1-[4-(3-piperidin-1-yl-propoxy)-benzyl]-piperidin-4-yl}-2,3-dihydro-1H-indole], the Ki came to 3 nM.
Regarding `c1ccc2c(c1)CCN2C1CCN(Cc2ccc(OCCCN3CCCCC3)cc2)CC1` [Example 64, 1-{1-[4-(3-Piperidin-1-yl-propoxy)-benzyl]-piperidin-4-yl}-2,3-dihydro-1H-indole], the Ki amounted to 2 nM.
As for `c1ccc(N(CCN2CCCC2)C2CCN(Cc3ccc(OCCCN4CCCCC4)cc3)CC2)nc1` [Example 38, {1-[4-(3-Piperidin-1-yl-propoxy)-benzyl]-piperidin-4-yl}-pyridin-2-yl-(2-pyrrolidin-1-yl-ethyl)-amine], the Ki worked out at 1.2 nM.
For the molecule `OCCC1CCN(Cc2ccc(OCCCN3CCCCC3)cc2)CC1` [Example 46, 2-{1-[4-(3-Piperidin-1-yl-propoxy)-benzyl]-piperidin-4-yl}-ethanol], the inhibition constant Ki turned out to be 1.2 nM.
`c1ccc(CN2CCN(Cc3ccc(OCCCN4CCCCC4)cc3)CC2)cc1` [Example 90, 1-Benzyl-4-[4-(3-piperidin-1-yl-propoxy)-benzyl]-piperazine]: the inhibitory constant (Ki) worked out at 0.9 nM.

The assay is the same for the next values; noted with them: 0.8 nM [3H]-N-methylhistamine, 45 min at 25° C., SK-N-MC cell membranes; unit given as nm; read-out: Ki.
Turning to `c1ccc2c(c1)CCCN2Cc1ccc(OCCCN2CCCCC2)cc1` [Example 95, 1-[4-(3-Piperidin-1-yl-propoxy)-benzyl]-1,2,3,4-tetrahydro-quinoline], the Ki was found to be 4.8 nM.
